Biological target: T1, human chemokine receptor CCR3 (Homo sapiens, UniProt P51677)
T1 construct: expressed in transfected cells; host or cells: K562 cell line (hCCR3-C1 cells), membrane preparation
T1 sequence (P51677 1-355): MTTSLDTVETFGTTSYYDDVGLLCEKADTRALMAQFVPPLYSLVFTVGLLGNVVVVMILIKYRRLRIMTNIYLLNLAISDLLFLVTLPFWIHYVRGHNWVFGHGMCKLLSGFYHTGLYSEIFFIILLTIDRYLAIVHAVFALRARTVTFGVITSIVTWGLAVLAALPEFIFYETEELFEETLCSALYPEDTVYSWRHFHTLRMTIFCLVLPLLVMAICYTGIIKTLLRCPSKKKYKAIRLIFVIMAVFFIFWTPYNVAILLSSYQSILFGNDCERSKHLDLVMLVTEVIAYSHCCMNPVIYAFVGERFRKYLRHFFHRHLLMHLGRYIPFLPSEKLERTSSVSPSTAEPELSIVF
Experiment: CCR3 receptor binding assay (SPA, 125I-eotaxin-1 displacement, hCCR3-C1 K562 cell membranes)
Conditions: human Eotaxin-1 at human CCR3-Rezeptor; for inhibition at 1 µM: 1 μM test compound, read-out: CCR3 % inh @ 1 μM; for Ki: dose range 0.1 to 10000 nM
Protocol: The CCR3 receptor binding test is based on a K562 cell line (leukemia myelogenic blast cells) transfected with the human chemokine receptor CCR3 (hCCR3-C1 cells). The cell membranes were prepared by disrupting the hCCR3-C1 cells by […]. The preparation was centrifuged at 400 g 4° C. for 30 min. The supernatant was transferred into fresh tubes followed by a second centrifugation at 48000 g, 4° C. for 1 h. The membranes were re-suspended in the SPA incubation buffer (25 mM HEPES, 25 mM MgCl2 6×H2O, 1 mM CaCl2 2×H2O) without bovine serum albumin and homogenized by passing through a single use needle (Terumo, 23Gx1″). The membranes were stored in aliquots at −80° C.
The CCR3 receptor binding assay was performed in a Scintillation Proximity Assay (SPA) design with the radioligand recombinant human ^125Iodine-eotaxin-1. Cell membranes of hCCR3 C1 cells were again homogenized by passing through a single use needle (Terumo, 23Gx1″) and diluted in SPA incubation buffer in suitable concentrations (0.5-10 μg protein/well) in 96 well microtiter plates (1450-514, Perkin Elmer). The SPA assay was set up in the SPA incubation buffer with a final volume of 200 μl and final concentration of 25 mM HEPES, 25 mM MgCl2 6×H2O, 1 mM CaCl2 2×H2O and 0.1% bovine serum albumin. The SPA assay mixture contained 60 μl of the membrane suspension, 80 μl of Wheat Germ Agglutinin coated PVT beads (organic scintillator, GE Healthcare, RPNQ-0001) 0.2 mg/well), 40 μl of recombinant human ^125Jodine-eotaxin-1 (Biotrend), diluted in SPA buffer to a final concentration of 30.000 dpm per well, and 20 μl of the test compound (dissolved in DMSO dilutions). The SPA assay mixture was incubated for 2 h at room temperature. Bound radioactivity was determined with a scintillation counter (Micro Beta “Trilux”, Wallac). Included were controls for total binding (no displacer added, Bo) and non-specific binding (NSB) by adding unlabelled recombinant human Eotaxin-1 (Biotrend, Cat #300-21) or a reference compound.
Determination of the affinity of a test compound was calculated by subtraction of the non-specific binding (NSB) from the total binding (Bo) or the binding in the presence of the test compound (B) at a given compound concentration. […] The Bo-NSB value was set to 0% inhibition.
% inhibition and Ki values are (human Eotaxin-1 at human CCR3-Rezeptor): […]

| SMILES | inhibition at 1 µM | Ki |
| --- | --- | --- |
| Cc1cc(CN2CCC(N3C(=O)CC[C@@H]3C(=O)Nc3cc(-n4cccn4)ccn3)CC2)ccc1Cl [Example 101] | 95% | 45 nM |
| Cc1cc(C)n(-c2ccnc(NC(=O)[C@H]3CCC(=O)N3C3CCN(Cc4ccc(Cl)c(C)c4)CC3)c2)n1 [Example 102] | 100% | 19 nM |
| Cc1cc(CN2CCC(N3C(=O)CC[C@@H]3C(=O)N(C)c3ccccn3)CC2)ccc1Cl [Example 103] | 54% | 1400 nM |
| Cc1cc(CN2CCC(N3C(=O)CC[C@@H]3C(=O)N(C)c3ccccc3)CC2)ccc1Cl [Example 104] | 24% | 2400 nM |
| Cc1cc(CN2CCC(N3C(=O)OC[C@H]3C(=O)Nc3cccc(C#N)c3)CC2)ccc1Cl [Example 116] | 93% | 47 nM |
| Cc1cc(CN2CCC(N3C(=O)OC[C@H]3C(=O)Nc3ccc4ncsc4c3)CC2)ccc1Cl [Example 118] | 94% | 40 nM |
| CNC(=O)c1cccc(NC(=O)[C@@H]2COC(=O)N2C2CCN(Cc3ccc(Cl)c(C)c3)CC2)c1 [Example 119] | 87% | 81 nM |
| Cc1cc(CN2CCC(N3C(=O)N(C)C[C@@H]3C(=O)Nc3cccc(-c4ccncc4)c3)CC2)ccc1Cl [Example 120] | 95% | 35 nM |
| Cc1cc(CN2CCC(N3C(=O)N(C)C[C@@H]3C(=O)Nc3cccc(-c4cscn4)c3)CC2)ccc1Cl [Example 121] | 98% | 21 nM |
| CNc1nc(-c2cccc(NC(=O)[C@H]3CN(C)C(=O)N3C3CCN(Cc4ccc(Cl)c(C)c4)CC3)c2)no1 [Example 122] | 95% | 30 nM |
| Cc1cc(CN2CCC(N3C(=O)N(C)C[C@@H]3C(=O)Nc3cccc(-c4cc[nH]n4)c3)CC2)ccc1Cl [Example 123] | 95% | 34 nM |
| Cc1cc(CN2CCC(N3C(=O)N(C)C[C@H]3C(=O)Nc3cc(C(C)(C)C)no3)CC2)ccc1Cl [Example 124] | 93% | 41 nM |
| Cc1cc(CN2CCC(N3C(=O)N(C)C[C@H]3C(=O)Nc3cccc(-c4cscn4)c3)CC2)ccc1Cl [Example 125] | 97% | 58 nM |
| Cc1cc(CN2CCC(N3C(=O)N(C)C[C@H]3C(=O)Nc3cccc(-c4nc[nH]n4)c3)CC2)ccc1Cl [Example 126] | 89% | 71 nM |
| CNC(=O)c1cccc(NC(=O)[C@@H]2CN(C)C(=O)N2C2CCN(Cc3ccc(Cl)c(C)c3)CC2)c1 [Example 127] | 90% | 81 nM |
| CNc1nc(-c2cccc(NC(=O)[C@@H]3CN(C)C(=O)N3C3CCN(Cc4ccc(Cl)c(C)c4)CC3)c2)no1 [Example 128] | 87% | 96 nM |
| Cc1cc(CN2CCC(N3C(=O)N(C)C[C@H]3C(=O)Nc3ccno3)CC2)ccc1Cl [Example 129] | 70% | 334 nM |
| Cc1cc(CN2CCC(N3C(=O)N(C)C[C@@H]3C(=O)Nc3cc(C4CC4)nn3C)CC2)ccc1Cl [Example 130] | 91% | 77 nM |
| CNC(=O)c1cccc(NC(=O)[C@H]2CN(C)C(=O)N2C2CCN(Cc3ccc(Cl)c(C)c3)CC2)c1 [Example 131] | 89% | 85 nM |

Now those with a lower Ki, led by results:

| inhibition at 1 µM | Ki | SMILES |
| --- | --- | --- |
| 80% | 18 nM | Cc1cc(C(=O)N(C)C)cc(NC(=O)[C@H]2CCC(=O)N2C2CCN(Cc3ccc(Cl)c(Cl)c3)CC2)n1 [Example 115] |
| 98% | 17 nM | Cc1cc(CN2CCC(N3C(=O)OC[C@H]3C(=O)Nc3cc(C4CC4)nn3C)CC2)ccc1Cl [Example 117] |
| 100% | 17 nM | CNC(=O)c1cc(C)cc(NC(=O)[C@H]2CCC(=O)N2C2CCN(Cc3ccc(Cl)c(C)c3)CC2)c1 [Example 142] |
| 99% | 13 nM | Cc1cc(CN2CCC(N3C(=O)CC[C@@H]3C(=O)Nc3cc(C(N)=O)cc(C(=O)N(C)C)c3)CC2)ccc1Cl [Example 107] |
| 99% | 10 nM | Cc1cc(CN2CCC(N3C(=O)CC[C@@H]3C(=O)Nc3cccc(C(=O)NC4CC4)c3)CC2)ccc1Cl [Example 148] |
| 99% | 10 nM | Cc1cc(CN2CCC(N3C(=O)CC[C@@H]3C(=O)Nc3cccc(C(=O)N(C)Cc4ccco4)c3)CC2)ccc1Cl [Example 149] |
| 99% | 8 nM | Cc1cc(CN2CCC(N3C(=O)CC[C@@H]3C(=O)Nc3cccc(C(=O)NCC(F)F)c3)CC2)ccc1Cl [Example 145] |
| 100% | 8 nM | Cc1cc(CN2CCC(N3C(=O)CC[C@@H]3C(=O)Nc3cccc(C(=O)N4CCCC4)c3)CC2)ccc1Cl [Example 146] |
| 99% | 8 nM | Cc1cc(CN2CCC(N3C(=O)CC[C@@H]3C(=O)Nc3cc(C(=O)N(C)C)ccn3)CC2)ccc1Cl [Example 147] |
| 99% | 7 nM | CCC(C)NC(=O)c1cccc(NC(=O)[C@H]2CCC(=O)N2C2CCN(Cc3ccc(Cl)c(C)c3)CC2)c1 (stereo partly shown) [Example 143] |
| 100% | 7 nM | Cc1cc(CN2CCC(N3C(=O)CC[C@@H]3C(=O)Nc3cccc(C(=O)N(C)C4CC4)c3)CC2)ccc1Cl [Example 144] |
| 98% | 6 nM | Cc1cc(C(=O)N2CCOCC2)cc(NC(=O)[C@H]2CCC(=O)N2C2CCN(Cc3ccc(Cl)c(C)c3)CC2)n1 [Example 140] |
| 94% | 6 nM | Cc1cc(CN2CCC(N3C(=O)CC[C@@H]3C(=O)Nc3cccc(C(=O)N(C)C)c3)CC2)ccc1Cl [Example 141] |
| 99% | 5 nM | Cc1cc(CN2CCC(N3C(=O)CC[C@@H]3C(=O)Nc3cc(C(=O)N(C)C)cc(C(=O)N(C)C)c3)CC2)ccc1Cl [Example 105] |
| 101% | 5 nM | Cc1cc(CN2CCC(N3C(=O)CC[C@@H]3C(=O)Nc3cc(C(=O)N4CCCC4)ccn3)CC2)ccc1Cl [Example 139] |
| 98% | 4 nM | COC(=O)c1cc(NC(=O)[C@H]2CCC(=O)N2C2CCN(Cc3ccc(Cl)c(C)c3)CC2)cc(C(=O)N(C)C)c1 [Example 108] |
| 99% | 4 nM | Cc1cc(NC(=O)[C@H]2CCC(=O)N2C2CCN(Cc3ccc(Cl)c(C)c3)CC2)cc(-c2nnnn2C)c1 [Example 114] |
| 100% | 4 nM | Cc1cc(CN2CCC(N3C(=O)CC[C@@H]3C(=O)Nc3cccc(C(=O)NCC4CC4)c3)CC2)ccc1Cl [Example 136] |
| 101% | 4 nM | Cc1cc(CN2CCC(N3C(=O)CC[C@@H]3C(=O)Nc3cccc(C(=O)NCC(C)C)c3)CC2)ccc1Cl [Example 137] |
| 101% | 4 nM | CCC(C)N(C)C(=O)c1cccc(NC(=O)[C@H]2CCC(=O)N2C2CCN(Cc3ccc(Cl)c(C)c3)CC2)c1 (stereo partly shown) [Example 138] |
| 100% | 3 nM | CNC(=O)c1cc(NC(=O)[C@H]2CCC(=O)N2C2CCN(Cc3ccc(Cl)c(C)c3)CC2)cc(C(=O)N(C)C)c1 [Example 106] |
| 100% | 3 nM | Cc1cc(CN2CCC(N3C(=O)CC[C@@H]3C(=O)Nc3cccc(C(=O)N(C)C(C)C)c3)CC2)ccc1Cl [Example 133] |
| 101% | 3 nM | Cc1cc(CN2CCC(N3C(=O)CC[C@@H]3C(=O)Nc3cccc(C(=O)NC4CCC4)c3)CC2)ccc1Cl [Example 134] |
| 101% | 3 nM | Cc1cc(C(=O)N(C)C)cc(NC(=O)[C@H]2CCC(=O)N2C2CCN(Cc3ccc(Cl)c(C)c3)CC2)n1 [Example 135] |
| 102% | 1 nM | Cc1cc(C(=O)N2CCCC2)cc(NC(=O)[C@H]2CCC(=O)N2C2CCN(Cc3ccc(Cl)c(C)c3)CC2)n1 [Example 132] |

Reference: patent US8653075B2, “Therapeutic methods employing substituted piperidines which are CCR3 antagonists” (Boehringer Ingelheim International GmbH, priority 2009, dated 2014)
